≈ marks a conversion by molar mass, not a printed value.
Columns and labels:
[1] = Solubility and/or stability of BIRB 796 in pharmaceutically-acceptable solvents; assay type: physicochemical; settings: 30% PEG 400, 40% PG/10% ethanol or aqueous buffer solutions at any pH
[2] = BIRB 796 binding to cyclodextrin (binding isotherm from solubility data), HPBCD; assay type: physicochemical
Protocol: (§1) The binding affinity for the BIRB 796 interaction with the ligands was evaluated in the following manner:
(§2) where Lt (ligand) is the total HPBCD or SBECD concentration, St is the solubility of BIRB 796 in the presence of ligand, So is the solubility in the absence of ligand, K11 is the binding constant for the 1:1 complex and K12 is the binding constant for the 1:2 complex. Upon rearrangement, these two equations simplify to the following linear equation: [formula]
(§3) A plot of [L]t vs. (StSo)/[Lt] yields the binding affinity according to the above equation.
(§4) FIG. 3 illustrates the binding analysis for the interaction between BIRB 796 and HPBCD at different concentrations. FIG. 4 illustrates the binding analysis for the interaction between BIRB 796 and SBECD at different concentrations. The binding constants were obtained through the slope and intercept values.

[3] = test system: proinflammatory cytokines, such as tumor necrosis factor (TNF) and interleukin-1 (IL-1); settings: disclosed in PCT/US99/29165; cited from earlier work
[4] = Stability of BIRB 796 in PEG 400 as function of temperature, storage atmosphere and light exposure; assay type: physicochemical; settings: for kobs / t90: PEG 400, C0 = 30 mg/mL; for half-life at 30 mg/mL: solution in PEG 400, PEG 400, C0 = 30 mg/mL
Protocol: The stability of BIRB 796 in PEG 400 was evaluated. An initial BIRB 796 concentration of approximately 30 mg/mL was prepared and the percent of BIRB 796 remaining in the PEG 400 solvent evaluated over an approximately two week time frame for differing conditions. The PEG 400-BIRB 796 mixture was kept under several different conditions: (1) at room temperature (about 23° C.) in ambient air in the dark; (2) at room temperature (about 23° C.) in ambient air in the light; (3) at 40° C. in ambient air; (4) at 40° C. in ambient air, the mixture being imbued with 0.1% sodium metabisulfite, an antioxidant; (5) at 60° C. in ambient air; (6) at 60° C. in an oxygen atmosphere; and (7) at 60° C. in a nitrogen atmosphere.
Rate constants were calculated using linear regression analysis of the data.

[5] = BIRB 796 binding to cyclodextrin (binding isotherm from solubility data), SBECD; assay type: physicochemical
Protocol: as §1, §2, §3, §4

[6] = Effect of cyclodextrins on the aqueous solubility of BIRB 796; assay type: physicochemical; settings: for solubility: aqueous
Protocol: Complexing cyclodextrin agents were evaluated as a means to improve the solubility of BIRB 796. The solubility of BIRB 796 was evaluated as a function of the concentrations of underivatized parent β-cyclodextrin (BCD), the alkylated derivatives […]. The results of Table 1 with respect to the solubility of BIRB 796 as a function of HPBCD concentration are illustrated in FIG. 1, and the results of Table 1 with respect to the solubitlity of BIRB 796 as a function of SBECD concentration are shown in FIG. 2.

[7] = 40° C., 0.1% sodium metabisulfite

Binding Constants K1:1 ([2]; 1:1 complex with HPBCD): 675 M⁻¹
Binding Constants K1.2 ([2]; 1:2 complex with HPBCD): 17.5 M⁻¹
kobs ([4]; 23° C., air (dark)): -0.00253 day⁻¹
t90 ([4]; 23° C., air (dark)): 41.5 days
kobs ([4]; 23° C., air, light): -0.0078 day⁻¹
t90 ([4]; 23° C., air, light): 13.5 days
kobs [4, 7]: -0.0161 day⁻¹
t90 [4, 7]: 6.52 days
kobs ([4]; 40° C., air): -0.0192 day⁻¹
t90 ([4]; 40° C., air): 5.47 days
kobs ([4]; 60° C., N2): -0.0552 day⁻¹
t90 ([4]; 60° C., N2): 1.90 days
kobs ([4]; 60° C., O2): -0.0772 day⁻¹
t90 ([4]; 60° C., O2): 1.36 days
kobs ([4]; 60° C., air): -0.0587 day⁻¹
t90 ([4]; 60° C., air): 1.79 days
degradation rate under constant light relative to dark ([4]; PEG 400, room temperature (about 23° C.), ambient air): approximately three-times as fast
decomposition in PEG 400 ([4]; over two weeks, 23° C.): significant decomposition was observed
half-life at 30 mg/mL ([4]; 23° C., air (dark)): 274 days
half-life at 30 mg/mL ([4]; 23° C., air, light): 88.8 days
half-life at 30 mg/mL [4, 7]: 43 days
half-life at 30 mg/mL ([4]; 40° C., air): 36.1 days
half-life at 30 mg/mL ([4]; 60° C., N2): 12.6 days
half-life at 30 mg/mL ([4]; 60° C., O2): 8.98 days
half-life at 30 mg/mL ([4]; 60° C., air): 11.8 days
Binding Constants K1:1 ([5]; 1:1 complex with SBECD): 8337 M⁻¹
Binding Constants K1.2 ([5]; 1:2 complex with SBECD): 29.1 M⁻¹
solubility ([6]; aqueous cyclodextrin solution, aqueous with cosolvent or surfactant or cyclodextrin, BCD 0.7 % w/v): 44 µg/mL (≈ 83.4 µM)
solubility ([6]; aqueous cyclodextrin solution, aqueous with cosolvent or surfactant or cyclodextrin, BCD 1.4 % w/v): 74 µg/mL (≈ 140 µM)
solubility ([6]; aqueous cyclodextrin solution, aqueous with cosolvent or surfactant or cyclodextrin, BCD 2 % w/v): 87 µg/mL (≈ 165 µM)
solubility ([6]; aqueous cyclodextrin solution, aqueous with cosolvent or surfactant or cyclodextrin, HPBCD 1 % w/v): 24 µg/mL (≈ 45.5 µM)
solubility ([6]; aqueous cyclodextrin solution, aqueous with cosolvent or surfactant or cyclodextrin, HPBCD 2.5 % w/v): 49 µg/mL (≈ 92.9 µM)
solubility ([6]; aqueous cyclodextrin solution, aqueous with cosolvent or surfactant or cyclodextrin, HPBCD 5 % w/v): 137 µg/mL (≈ 260 µM)
solubility ([6]; aqueous cyclodextrin solution, aqueous with cosolvent or surfactant or cyclodextrin, HPBCD 10 % w/v): 233 µg/mL (≈ 442 µM)
solubility ([6]; aqueous cyclodextrin solution, aqueous with cosolvent or surfactant or cyclodextrin, HPBCD 25 % w/v): 1540 µg/mL (≈ 2910 µM)
solubility ([6]; aqueous cyclodextrin solution, aqueous with cosolvent or surfactant or cyclodextrin, SBECD 1 % w/v): 21 µg/mL (≈ 39.8 µM)
solubility ([6]; aqueous cyclodextrin solution, aqueous with cosolvent or surfactant or cyclodextrin, SBECD 2.5 % w/v): 85 µg/mL (≈ 161 µM)
solubility ([6]; aqueous cyclodextrin solution, aqueous with cosolvent or surfactant or cyclodextrin, SBECD 5 % w/v): 156 µg/mL (≈ 296 µM)
solubility ([6]; aqueous cyclodextrin solution, aqueous with cosolvent or surfactant or cyclodextrin, SBECD 10 % w/v): 371 µg/mL (≈ 703 µM)
solubility ([6]; aqueous cyclodextrin solution, aqueous with cosolvent or surfactant or cyclodextrin, SBECD 25 % w/v): 2170 µg/mL (≈ 4120 µM)
solubility ([6]; aqueous solution without cyclodextrin, SBECD 0 % w/v): 0.5 µg/mL (≈ 0.948 µM)
solubility ([6]; aqueous solution without cyclodextrin, no cyclodextrin (0 % w/v)): 3.3 µg/mL (≈ 6.25 µM)
BIRB 796 solubilized by SBECD, more than by HPBCD ([6]; highest cyclodextrin concentration evaluated (25% w/v)): approximately 40%
Compound: Cc1ccc(-n2nc(C(C)(C)C)cc2NC(=O)Nc2ccc(OCCN3CCOCC3)c3ccccc23)cc1 [BIRB 796, 1-(5-tert-butyl-2-p-tolyl-2H-pyrazol-3-yl)-3-[4-(2-morpholin-4-yl-ethoxy)-naphthalen-1-yl]-urea]
solubility and/or stability [1]: can not achieve a desirable solubility and/or stability
inhibitory activity with respect to proinflammatory cytokines [3]: unexpectedly significant inhibitory activity
binding affinity of SBECD for BIRB 796 compared with HPBCD ([5]; SBECD versus HPBCD, Table 2): approximately an order of magnitude higher binding affinity

Source: US20030068340A1, “Parenteral formulations of 1-(5-tert-butyl-2-p-tolyl-2H-pyrazol-3-yl)-3-[4-(2-morpholin-4-yl-ethoxy)-naphthalen-1-yl]-urea” (Boehringer Ingelheim Pharmaceuticals, Inc., priority 2001, published 2003)
